Numbered stars: 1 amine (or outer) side, 2 acyl side, 3 side chain; on linkers, the order of the positions; unused ones are H or OH. Bridge positions count the residues as written; N and C are the ends. Square brackets hold non-standard residues; d marks the D form. Peptide text beside a SMILES is read from it. * marks the point of attachment. hPhe(3,5-F2-4-CF3) = N[C@@H](CCc1cc(F)c(C(F)(F)F)c(F)c1)C(=O)O; hPhe(3-Cl-4-CF3) = N[C@@H](CCc1ccc(C(F)(F)F)c(Cl)c1)C(=O)O; ACHC(1R,2R) = O=C([C@@H]1CCCC[C@H]1N[*:1])[*:2]; X25 = COc1ccc(C[C@@H](C(=O)[*:2])N(C)[*:1])cn1; NMePhe(4-CN) = CN[C@@H](Cc1ccc(C#N)cc1)C(=O)O; NEtPhe(4-Me) = CCN[C@@H](Cc1ccc(C)cc1)C(=O)O; NMePhe(4-Me) = CN[C@@H](Cc1ccc(C)cc1)C(=O)O; NMePhe(4-F) = CN[C@@H](Cc1ccc(F)cc1)C(=O)O; NMedβ3hAla = C[C@H](CC(=O)[*:2])N(C)[*:1]; NMeGly(cPent) = CN[C@H](C(=O)O)C1CCCC1; Phe(3-I) = N[C@@H](Cc1cccc(I)c1)C(=O)O; NMe3Pal = CN[C@@H](Cc1cccnc1)C(=O)O; NMeY = CN[C@@H](Cc1ccc(O)cc1)C(=O)O; NMeCha = CN[C@@H](CC1CCCCC1)C(=O)O; NMeGly(cPr) = CN[C@H](C(=O)O)C1CC1; NMehLeu = CN[C@@H](CCC(C)C)C(=O)O; Hyp = O=C(O)[C@@H]1C[C@@H](O)CN1; NMeChg = CN[C@H](C(=O)O)C1CCCCC1; NMeF = CN[C@@H](Cc1ccccc1)C(=O)O; NMeI = CC[C@H](C)[C@H](NC)C(=O)O; NMeD = CN[C@@H](CC(=O)O)C(=O)O; NMeL = CN[C@@H](CC(C)C)C(=O)O; NMeV = CN[C@H](C(=O)O)C(C)C; d(β3hA) = C[C@@H](N)CC(=O)O; NMeS = CN[C@@H](CO)C(=O)O; NMeA = CN[C@@H](C)C(=O)O; Piperidide = C1CCN(*)CC1; Pyrrolidide = C1CCN(*)C1; dNMeA = CN[C@H](C)C(=O)O; Ac5c = NC1(C(=O)O)CCCC1; Aze = O=C(O)[C@@H]1CCN1; Ac4c = NC1(C(=O)O)CCC1; CH2CMe2OH = CC(C)(O)C*; Cyclobutyl = C1CC(*)C1; βAla = NCCC(=O)O; Sar = CNCC(=O)O
Test system: Human pancreatic cancer cell line AsPC-1 (G12D mutation Kras)
Assay: AsPC-1 cell growth inhibition (AsPC-1 CGI)
Format: cell-based
Details: read-out: AsPC-1 cell growth inhibition, 50% growth inhibitory concentration (IC50 value); 96 hours, CellTiter-Glo, values classified in ranges
Protocol: Test compounds were serially dilated with dimethyl sulfoxide, and 200 nL was then dispensed to a U-bottom 96-well plate using Labcyte Echo. […] The cell suspension was dispensed to a. plate containing a test compound at 100 μL per well and incubated at 37° C. in a 5% carbon dioxide gas incubator. 96 hours later, 80 μL of CellTiter-Glo (Promega) was added to each well and fluorescence was measured.

Compound	IC50
CC[C@H](C)[C@@H]1NC(=O)[C@H](CC(C)C)N(C)C(=O)C[C@@H](C(=O)N(C)C)N(C)C(=O)[C@H]([C@@H](C)CC)N(C)C(=O)[C@H](C)NC(=O)[C@H](Cc2cccnc2)N(C)C(=O)[C@H](CCc2ccc(C(F)(F)F)c(Cl)c2)NC(=O)CN(C)C(=O)[C@H](Cc2ccc(C)cc2)N(C)C(=O)[C@@H]2CCN2C(=O)[C@H](C)N(C)C1=O [Compound 557] ([NMeL]I[NMeA][Aze][NMePhe(4-Me)][Sar][hPhe(3-Cl-4-CF3)][NMe3Pal]A[NMeI][NMeD]-NMe2; lactam N-11)	> 500 nM
CC[C@H](C)[C@@H]1NC(=O)[C@H](CC(C)C)N(C)C(=O)C[C@@H](C)NC(=O)[C@H](C(C)C)N(C)C(=O)C2(CCCC2)NC(=O)[C@@H]2CCCN2C(=O)[C@H](CCc2ccc(C(F)(F)F)c(Cl)c2)NC(=O)CN(C)C(=O)[C@H](Cc2ccc(C#N)cc2)N(C)C(=O)CN(C)C(=O)CN(C)C1=O [Compound 564] (cyclo([Ac5c][NMeV][d(β3hA)][NMeL]I[Sar][Sar][NMePhe(4-CN)][Sar][hPhe(3-Cl-4-CF3)]P))	> 500 nM
CC[C@H](C)[C@@H]1NC(=O)[C@H](C2CC2)N(C)C(=O)C[C@@H](C)NC(=O)[C@H](C(C)C)N(C)C(=O)C2(CCCC2)NC(=O)[C@@H]2CCCN2C(=O)[C@H](CCc2ccc(C(F)(F)F)c(Cl)c2)NC(=O)CN(C)C(=O)[C@H](CC2CCCCC2)N(C)C(=O)[C@@H]2CCN2C(=O)[C@H](C)N(C)C1=O [Compound 565] (cyclo([Ac5c][NMeV][d(β3hA)][NMeGly(cPr)]I[NMeA][Aze][NMeCha][Sar][hPhe(3-Cl-4-CF3)]P))	> 500 nM
CC[C@H](C)[C@@H]1NC(=O)[C@H](CC(C)C)NC(=O)[C@@H]2CCCC[C@H]2NC(=O)[C@H](C(C)C)N(C)C(=O)C2(CCCC2)NC(=O)[C@@H]2CCCN2C(=O)[C@H](CCc2ccc(C(F)(F)F)c(Cl)c2)NC(=O)CN(C)C(=O)[C@H](CC2CCCCC2)N(C)C(=O)CN(C)C(=O)CN(C)C1=O [Compound 569] (cyclo([Ac5c][NMeV][ACHC(1R,2R)]LI[Sar][Sar][NMeCha][Sar][hPhe(3-Cl-4-CF3)]P))	> 500 nM
CC[C@H](C)[C@@H]1NC(=O)[C@H](C2CCCC2)N(C)C(=O)C[C@@H](C)NC(=O)[C@H](C(C)C)N(C)C(=O)C2(CCCC2)NC(=O)[C@@H]2CCCN2C(=O)[C@H](CCc2ccc(C(F)(F)F)c(Cl)c2)NC(=O)CN(C)C(=O)[C@H](CC2CCCCC2)N(C)C(=O)[C@@H]2CCN2C(=O)[C@H](C)N(C)C1=O [Compound 570] (cyclo([Ac5c][NMeV][d(β3hA)][NMeGly(cPent)]I[NMeA][Aze][NMeCha][Sar][hPhe(3-Cl-4-CF3)]P))	> 500 nM
CC[C@H](C)[C@@H]1NC(=O)[C@H](CC(C)C)N(C)C(=O)C[C@@H](C(=O)N(C)C)N(C)C(=O)[C@H]([C@@H](C)CC)N(C)C(=O)C2(CCCC2)NC(=O)[C@@H]2CCCN2C(=O)[C@H](CCc2cc(F)c(C(F)(F)F)c(F)c2)NC(=O)CN(C)C(=O)[C@H](Cc2ccc(C)cc2)N(CC)C(=O)[C@@H]2CCN2C(=O)[C@H](C)N(C)C1=O [Compound 571] ([NMeL]I[NMeA][Aze][NEtPhe(4-Me)][Sar][hPhe(3,5-F2-4-CF3)]P[Ac5c][NMeI][NMeD]-NMe2; lactam N-11)	≤ 20 nM
CC[C@H](C)[C@@H]1NC(=O)[C@H](CC(C)C)N(C)C(=O)C[C@@H](C(=O)N2CCCCC2)N(C)C(=O)[C@H](CC2CCCCC2)N(C)C(=O)C2(CCCC2)NC(=O)[C@@H]2CCCN2C(=O)[C@H](CCc2ccc(C(F)(F)F)c(Cl)c2)NC(=O)CN(C)C(=O)[C@H](CC2CCCCC2)N(C)C(=O)CN(C)C(=O)CN(C)C1=O [Compound 577] ([NMeL]I[Sar][Sar][NMeCha][Sar][hPhe(3-Cl-4-CF3)]P[Ac5c][NMeCha][NMeD]-Piperidide; lactam N-11)	> 500 nM
CC[C@H](C)[C@@H]1NC(=O)[C@H](C)N(C)C(=O)C[C@@H](C)NC(=O)[C@H](C2CCCC2)N(C)C(=O)C2(CCCC2)NC(=O)[C@@H]2CCCN2C(=O)[C@H](CCc2ccc(C(F)(F)F)c(Cl)c2)NC(=O)[C@@H](C)N(C)C(=O)[C@H](Cc2ccc(F)cc2)N(C)C(=O)[C@@H]2CCN2C(=O)[C@H](C)N(C)C1=O [Compound 584] (cyclo([Ac5c][NMeGly(cPent)][d(β3hA)][NMeA]I[NMeA][Aze][NMePhe(4-F)][dNMeA][hPhe(3-Cl-4-CF3)]P))	> 500 nM
CC[C@H](C)[C@@H]1NC(=O)[C@H](CC(C)C)N(C)C(=O)C[C@@H](C(=O)N2CCCCC2)N(C)C(=O)[C@H](COC2CCC2)N(C)C(=O)C2(CCCC2)NC(=O)[C@@H]2CCCN2C(=O)[C@H](CCc2ccc(C(F)(F)F)c(Cl)c2)NC(=O)CN(C)C(=O)[C@H](CC2CCCCC2)N(C)C(=O)CN(C)C(=O)CN(C)C1=O [Compound 585] ([NMeL]I[Sar][Sar][NMeCha][Sar][hPhe(3-Cl-4-CF3)]P[Ac5c][NMeS](Cyclobutyl)[NMeD]-Piperidide; lactam N-11)	> 500 nM
CC[C@H](C)[C@@H]1NC(=O)[C@H](CC(C)C)N(C)C(=O)C[C@@H](C)NC(=O)[C@H](CCC(C)C)N(C)C(=O)C2(CCCC2)NC(=O)[C@@H]2CCCN2C(=O)[C@H](CCc2ccc(C(F)(F)F)c(Cl)c2)NC(=O)CN(C)C(=O)[C@H](CC2CCCCC2)N(C)C(=O)CN(C)C(=O)CN(C)C1=O [Compound 586] (cyclo([Ac5c][NMehLeu][d(β3hA)][NMeL]I[Sar][Sar][NMeCha][Sar][hPhe(3-Cl-4-CF3)]P))	> 500 nM
CC[C@H](C)[C@@H]1NC(=O)[C@H](CC(C)C)N(C)C(=O)C[C@@H](C(=O)N2CCCCC2)N(C)C(=O)[C@H](C2CCCCC2)N(C)C(=O)[C@H](C)NC(=O)[C@@H]2CCCN2C(=O)[C@H](CCc2ccc(C(F)(F)F)c(Cl)c2)NC(=O)CN(C)C(=O)[C@H](CC2CCCCC2)N(C)C(=O)CN(C)C(=O)CN(C)C1=O [Compound 591] ([NMeL]I[Sar][Sar][NMeCha][Sar][hPhe(3-Cl-4-CF3)]PA[NMeChg][NMeD]-Piperidide; lactam N-11)	> 500 nM
CC[C@H](C)[C@@H]1NC(=O)[C@H](CC(C)C)N(C)C(=O)C[C@@H](C)NC(=O)[C@H](C2CCCCC2)N(C)C(=O)C2(CCCC2)NC(=O)[C@@H]2CCCN2C(=O)[C@H](CCc2ccc(C(F)(F)F)c(Cl)c2)NC(=O)CN(C)C(=O)[C@H](CC2CCCCC2)N(C)C(=O)CN(C)C(=O)CN(C)C1=O [Compound 593] (cyclo([Ac5c][NMeChg][d(β3hA)][NMeL]I[Sar][Sar][NMeCha][Sar][hPhe(3-Cl-4-CF3)]P))	> 500 nM
CC(C)C[C@H]1C(=O)N[C@@H]([C@@H](C)O)C(=O)N(C)CC(=O)N(C)CC(=O)N(C)[C@@H](CC2CCCCC2)C(=O)N(C)CC(=O)N[C@@H](CCc2ccc(C(F)(F)F)c(Cl)c2)C(=O)N2CCC[C@H]2C(=O)NC2(CCCC2)C(=O)N(C)[C@@H](C2CCCCC2)C(=O)N(C)[C@H](C(=O)N2CCCCC2)CC(=O)N1C [Compound 603] ([NMeL]T[Sar][Sar][NMeCha][Sar][hPhe(3-Cl-4-CF3)]P[Ac5c][NMeChg][NMeD]-Piperidide; lactam N-11)	> 500 nM
CC[C@H](C)[C@@H]1NC(=O)[C@H](C)N(C)C(=O)C[C@@H](C(=O)N2CCCC2)N(C)C(=O)[C@H](CC(C)C)NC(=O)[C@H](Cc2ccccc2)N(C)C(=O)[C@H](C)NC(=O)[C@H](Cc2cccc(I)c2)NC(=O)CN(C)C(=O)[C@H](Cc2ccc(OC)cc2)N(C)C(=O)[C@@H]2CCN2C(=O)[C@H](C)N(C)C1=O [Compound 604] ([NMeA]I[NMeA][Aze][NMeY](Me)[Sar][Phe(3-I)]A[NMeF]L[NMeD]-Pyrrolidide; lactam N-11)	> 500 nM
CC[C@H](C)[C@@H]1NC(=O)CCNC(=O)[C@H](COCC(C)(C)O)N(C)C(=O)[C@H](C2CCCCC2)N(C)C(=O)C2(CCCC2)NC(=O)[C@@H]2CCCN2C(=O)[C@H](CCc2ccc(C(F)(F)F)c(Cl)c2)NC(=O)CN(C)C(=O)[C@H](CC2CCCCC2)N(C)C(=O)CN(C)C(=O)CN(C)C1=O [Compound 605] (cyclo([Ac5c][NMeChg][NMeS](CH2CMe2OH)[βAla]I[Sar][Sar][NMeCha][Sar][hPhe(3-Cl-4-CF3)]P))	> 500 nM
CC[C@H](C)[C@@H]1NC(=O)[C@H](CC(C)C)N(C)C(=O)C[C@@H](C(=O)N2CCCCC2)N(C)C(=O)[C@H](C2CCCCC2)N(C)C(=O)C2(CCCC2)NC(=O)[C@H](Cc2ccc(OC)nc2)N(C)C(=O)[C@H](CCc2ccc(C(F)(F)F)c(Cl)c2)NC(=O)CN(C)C(=O)[C@H](CC2CCCCC2)N(C)C(=O)[C@@H]2CCN2C(=O)CN(C)C1=O [Compound 614] ([NMeL]I[Sar][Aze][NMeCha][Sar][hPhe(3-Cl-4-CF3)][X25][Ac5c][NMeChg][NMeD]-Piperidide; lactam N-11)	> 500 nM
CC[C@H](C)[C@@H]1NC(=O)[C@H](CC(C)C)N(C)C(=O)C[C@@H](C(=O)N2CCCCC2)N(C)C(=O)[C@H](CC(C)C)NC(=O)[C@H](Cc2ccccc2)N(C)C(=O)[C@H](C)NC(=O)[C@H](Cc2cccc(I)c2)NC(=O)CN(C)C(=O)[C@H](Cc2ccc(C)cc2)N(C)C(=O)CN(C)C(=O)CN(C)C1=O [Compound 619] ([NMeL]I[Sar][Sar][NMePhe(4-Me)][Sar][Phe(3-I)]A[NMeF]L[NMeD]-Piperidide; lactam N-11)	> 500 nM
CC[C@H](C)[C@@H]1NC(=O)[C@H](CC(C)C)N(C)C(=O)C[C@@H](C(=O)N2CCCCC2)N(C)C(=O)[C@H](C2CCCCC2)N(C)C(=O)C2(CCCC2)NC(=O)[C@@H]2CCCN2C(=O)[C@H](CCc2ccc(C(F)(F)F)c(Cl)c2)NC(=O)CN(C)C(=O)[C@H](COC)N(C)C(=O)CN(C)C(=O)CN(C)C1=O [Compound 623] ([NMeL]I[Sar][Sar][NMeS](Me)[Sar][hPhe(3-Cl-4-CF3)]P[Ac5c][NMeChg][NMeD]-Piperidide; lactam N-11)	> 500 nM
CCO[C@@H]1C[C@H]2C(=O)NC3(CCC3)C(=O)N(C)[C@@H]([C@@H](C)CC)C(=O)N(C)[C@H](C)CC(=O)N(C)[C@@H](CC(C)C)C(=O)N[C@@H]([C@@H](C)CC)C(=O)N(C)[C@@H](C)C(=O)N3CC[C@H]3C(=O)N(CC)[C@@H](Cc3ccc(C)cc3)C(=O)N(C)CC(=O)N[C@@H](CCc3ccc(C(F)(F)F)c(Cl)c3)C(=O)N2C1 [Compound 626] (cyclo([Ac4c][NMeI][NMedβ3hAla][NMeL]I[NMeA][Aze][NEtPhe(4-Me)][Sar][hPhe(3-Cl-4-CF3)][Hyp](Et)))	≤ 20 nM
